Where “and” joins values, the source holds several entries; their conditions need not be identical. Equal entries are not always repeated.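 Grown in 96-well plates, cells were treated for 48 hours with each compound at five concentrations. Insufficient inhibition: endpoint recorded as highest concentration tested. GI50 marks 50% less growth. At the TGI there is no net growth.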

Some test systems named below: HS 578T breast; K-562 leukemia; M14 melanoma; NCI/ADR-RES ovarian; ACHN renal; SK-MEL-2 melanoma; MDA-MB-435; HCT-116 colon; UACC-62 melanoma; T-47D breast.
What all share (assay): NCI anticancer screen, dose series, 48 h

As to `COc1cc2cc(Oc3ccc(NC(=O)Nc4cccc(C(F)(F)F)c4)cc3)c(C)nc2cc1OC`, the GI50 in the experiment with HS 578T breast was 1.44 µM; with K-562 leukemia, 1.73 µM; in the experiment with M14 melanoma it was 1.67 µM; in the experiment with NCI/ADR-RES ovarian it was 1.71 µM; in the experiment with ACHN renal, 1.64 µM; with SK-MEL-2 melanoma it was 1.28 µM. The GI50 is 1.63 µM with MDA-MB-435, 1.46 µM with HCT-116 colon, 1.84 µM in the experiment with UACC-62 melanoma and 1.61 µM in the experiment on T-47D breast. The TGI amounted to 4.22 µM in the experiment with HS 578T breast; 14 µM in the experiment with K-562 leukemia; 7.67 µM in the experiment on M14 melanoma; 7.19 µM in the experiment with NCI/ADR-RES ovarian; 7.71 µM with ACHN renal; 2.87 µM in the experiment with SK-MEL-2 melanoma. The TGI came out at 10.1 µM with MDA-MB-435, 5.84 µM in the experiment with HCT-116 colon, 10.9 µM with UACC-62 melanoma and 6.68 µM in the experiment with T-47D breast.
As to `Cc1c(-c2c(-c3ccc(F)o3)sc3ncnc(O[C@H](Cc4ccccc4OCc4ccnn4CC(F)(F)F)C(=O)O)c23)ccc(OCCN2CCN(C)CC2)c1Cl`, the GI50 in the experiment with HS 578T breast was 1.53 µM; in the experiment on K-562 leukemia it was 3.71 µM; with M14 melanoma it was 1.32 µM; in the experiment on NCI/ADR-RES ovarian, 15.5 µM; in the experiment on ACHN renal, 6.46 µM; in the experiment on SK-MEL-2 melanoma it was 0.03 µM. Further, the GI50 is 1.89 µM in the experiment with MDA-MB-435, 3.9 µM with HCT-116 colon, 0.249 µM in the experiment with UACC-62 melanoma and 5.14 µM with T-47D breast. Further, the TGI with HS 578T breast was 9.42 µM; with K-562 leukemia, 14.5 µM; in the experiment on M14 melanoma, 5.83 µM; in the experiment with NCI/ADR-RES ovarian, 33.4 µM; with ACHN renal it was 19 µM; with SK-MEL-2 melanoma, 0.097 µM. In addition, the TGI is 6.37 µM with MDA-MB-435, 9.23 µM with HCT-116 colon, 3.13 µM in the experiment on UACC-62 melanoma and 16.3 µM with T-47D breast.
Take `COc1cc2c3c(n(CCCN)c(=O)c2cc1OC)-c1cc2c(cc1/C3=C\CCN)OCO2`: the GI50 in the experiment on HS 578T breast is 11 µM; in the experiment on K-562 leukemia, 2.17 µM; in the experiment with M14 melanoma, 12.3 µM; with NCI/ADR-RES ovarian it was more than 96.1 µM; in the experiment with ACHN renal it was 5.81 µM; in the experiment on SK-MEL-2 melanoma it was 6.57 µM. The GI50 is 0.989 µM with HCT-116 colon, 1.75 µM with UACC-62 melanoma and 19.4 µM with T-47D breast. The TGI was 55.7 µM with HS 578T breast; more than 40.4 µM with K-562 leukemia; 35.7 µM in the experiment on M14 melanoma; more than 100 µM in the experiment on NCI/ADR-RES ovarian; 45 µM with ACHN renal; 14.6 µM with SK-MEL-2 melanoma. Also, the results for the TGI in the experiment with MDA-MB-435, in the experiment with UACC-62 melanoma and with T-47D breast were more than 36 µM, 4.98 µM and more than 100 µM, respectively.
Consider `O=C1/C(=C/c2ccccc2)CN(C(=O)c2cccnc2)C/C1=C\c1ccccc1`, for which the GI50 was 5.56 µM with HS 578T breast; 0.347 µM with K-562 leukemia; 1.93 µM in the experiment with M14 melanoma; 3.03 µM in the experiment on NCI/ADR-RES ovarian; 1.99 µM with ACHN renal; 6.72 µM with SK-MEL-2 melanoma. Besides, the GI50 in the experiment on MDA-MB-435 was 0.483 µM; in the experiment with HCT-116 colon, 0.319 µM; in the experiment with UACC-62 melanoma, 2.32 µM; with T-47D breast, 2.92 µM. Moreover, the TGI with HS 578T breast was 41.5 µM; in the experiment on K-562 leukemia, more than 100 µM; in the experiment with M14 melanoma, 5.17 µM; with NCI/ADR-RES ovarian it was 21.2 µM; with ACHN renal, 4.53 µM; in the experiment on SK-MEL-2 melanoma it was 20.6 µM. Also, the TGI with MDA-MB-435 is 2.15 µM; with HCT-116 colon, 0.88 µM; in the experiment on UACC-62 melanoma it was 5.5 µM; in the experiment on T-47D breast it was 12.2 µM.
Consider `Nc1c(Br)cc(Br)c2c1[nH]c(=O)c1ccccc12`, for which the GI50 in the experiment on HS 578T breast was 3.07 µM; in the experiment with K-562 leukemia it was 37.3 µM; with M14 melanoma, 9.89 µM; with NCI/ADR-RES ovarian it was 6.68 µM; with ACHN renal it was 3.18 µM; in the experiment on SK-MEL-2 melanoma, 20.7 µM. Moreover, the GI50 in the experiment on MDA-MB-435 was 19.5 µM; in the experiment with HCT-116 colon, 3.98 µM; in the experiment on UACC-62 melanoma, 46.8 µM; in the experiment on T-47D breast, 2.41 µM. For the same compound, the TGI is 30 µM in the experiment with HS 578T breast; more than 100 µM in the experiment with K-562 leukemia; more than 100 µM in the experiment on M14 melanoma; 66.7 µM in the experiment on NCI/ADR-RES ovarian; 10.4 µM in the experiment on ACHN renal; 60.3 µM in the experiment on SK-MEL-2 melanoma. The TGI with MDA-MB-435 is more than 100 µM; with HCT-116 colon, 20.2 µM; in the experiment with UACC-62 melanoma, more than 100 µM; in the experiment on T-47D breast it was 17.5 µM.
For `O=C(/C=C/c1cccnc1)NCCCCC1CCCN(C(=O)c2ccccc2)C1` (stereo unspecified), the GI50 in the experiment on HS 578T breast is 4.45 µM; with K-562 leukemia, less than 0.01 µM; in the experiment with M14 melanoma, less than 0.01 µM; in the experiment with NCI/ADR-RES ovarian, 0.0103 µM; in the experiment with ACHN renal it was more than 91 µM; with SK-MEL-2 melanoma it was 5.71 µM. For the same compound, the GI50 was less than 0.01 µM in the experiment on MDA-MB-435, less than 0.01 µM in the experiment with HCT-116 colon, more than 90.6 µM in the experiment on UACC-62 melanoma and less than 0.01 µM in the experiment with T-47D breast. Also, the TGI with HS 578T breast, in the experiment on K-562 leukemia, with M14 melanoma, with NCI/ADR-RES ovarian, in the experiment with ACHN renal and in the experiment on SK-MEL-2 melanoma was more than 100 µM each time. The TGI with MDA-MB-435, in the experiment with HCT-116 colon, with UACC-62 melanoma and in the experiment with T-47D breast was more than 100 µM each time.
As for `COC(=O)c1c2c(c(C)[n+]([O-])c1C)C(=O)C=C(NCc1ccc(F)c(Cl)c1)C2=O`, the GI50 in the experiment with HS 578T breast is 1.62 µM; in the experiment on K-562 leukemia, 0.0315 µM; in the experiment with M14 melanoma, 0.117 µM; in the experiment with NCI/ADR-RES ovarian, 0.265 µM; in the experiment on ACHN renal, 0.126 µM; in the experiment with SK-MEL-2 melanoma, 0.677 µM. In addition, the GI50 with MDA-MB-435 is 0.0515 µM; with HCT-116 colon, 0.13 µM; in the experiment on UACC-62 melanoma, 0.0325 µM; in the experiment with T-47D breast, 0.0638 µM. In addition, the TGI was found to be 6.48 µM in the experiment with HS 578T breast; 5.27 µM in the experiment with K-562 leukemia; 1.45 µM in the experiment on M14 melanoma; 1.63 µM in the experiment on NCI/ADR-RES ovarian; 1.81 µM in the experiment on ACHN renal; 2.5 µM in the experiment on SK-MEL-2 melanoma. Also, the TGI in the experiment on MDA-MB-435 worked out at 0.173 µM; in the experiment with HCT-116 colon, 1.03 µM; in the experiment on UACC-62 melanoma, 0.662 µM; in the experiment on T-47D breast it was 1.35 µM.
Consider `O=C1CCCCCCCC/C=C\CC(c2ccco2)O1` (stereo unspecified), for which the GI50 with HS 578T breast was 32.4 µM; in the experiment on K-562 leukemia, 23.5 µM; with M14 melanoma, 24.6 µM; with NCI/ADR-RES ovarian, 34.4 µM; in the experiment on ACHN renal, 23.9 µM; with SK-MEL-2 melanoma, 21.6 µM. Also, the GI50 in the experiment with MDA-MB-435 is 51.5 µM; in the experiment with HCT-116 colon, 15.1 µM; with UACC-62 melanoma, 14.6 µM; with T-47D breast it was 13.1 µM. Also, the TGI was more than 100 µM in the experiment with HS 578T breast; 73.8 µM with K-562 leukemia; 70.5 µM in the experiment with M14 melanoma; more than 100 µM with NCI/ADR-RES ovarian; 82.4 µM in the experiment with ACHN renal; 58.4 µM with SK-MEL-2 melanoma. Moreover, the TGI is more than 100 µM in the experiment with MDA-MB-435, 29.5 µM in the experiment on HCT-116 colon, 68.9 µM with UACC-62 melanoma and 57 µM in the experiment on T-47D breast.
Regarding `COc1ncc(-c2ccc3nccc(-c4ccnnc4)c3c2)cc1NS(=O)(=O)c1ccc(F)cc1F`, the GI50 with HS 578T breast was 0.00212 µM and < 0.01 µM; in the experiment on M14 melanoma, 0.013 µM and < 0.01 µM; in the experiment on NCI/ADR-RES ovarian, 0.0228 µM and 0.0246 µM; in the experiment with ACHN renal, 0.0104 µM and < 0.0114 µM; with SK-MEL-2 melanoma, 0.0194 µM and < 0.01 µM; in the experiment with MDA-MB-435, 0.0105 µM and < 0.0117 µM. The GI50 with HCT-116 colon is 0.0155 µM; in the experiment on UACC-62 melanoma, 0.00217 µM and < 0.01 µM. Also, the TGI was 0.0433 µM and 0.023 µM in the experiment with HS 578T breast; more than 100 µM in the experiment on K-562 leukemia; 0.794 µM and 0.485 µM in the experiment on M14 melanoma; > 8.81 µM and 4.37 µM in the experiment with NCI/ADR-RES ovarian; more than 74.3 µM in the experiment on ACHN renal; 0.227 µM and 0.15 µM in the experiment with SK-MEL-2 melanoma. The TGI with MDA-MB-435 is 1.13 µM and 0.863 µM; in the experiment on HCT-116 colon, 2.31 µM and 1.55 µM; in the experiment on UACC-62 melanoma, 0.019 µM and 0.0263 µM; with T-47D breast it was 0.00428 µM.
As for `O=C1C(=O)c2ccccc2C(O)=C1CC=C(Br)Br`, the GI50 was 10.6 µM with HS 578T breast; 1.33 µM in the experiment with K-562 leukemia; 7.38 µM in the experiment on M14 melanoma; 5.33 µM with NCI/ADR-RES ovarian; 4.71 µM in the experiment with ACHN renal; 12.2 µM with SK-MEL-2 melanoma. The GI50 is 5.26 µM with MDA-MB-435, 0.887 µM with HCT-116 colon, 1.57 µM in the experiment on UACC-62 melanoma and 15.4 µM in the experiment with T-47D breast. In addition, the TGI is 56 µM in the experiment on HS 578T breast; more than 100 µM in the experiment with K-562 leukemia; 55.4 µM with M14 melanoma; 87.3 µM in the experiment on NCI/ADR-RES ovarian; 92.3 µM in the experiment with ACHN renal; 30.9 µM with SK-MEL-2 melanoma. In addition, the TGI in the experiment on MDA-MB-435 is 98 µM; in the experiment on HCT-116 colon it was more than 100 µM; in the experiment on UACC-62 melanoma, 35.9 µM; in the experiment with T-47D breast it was 81.2 µM.
Regarding `O=c1ccn(C2OC(CO/N=C/c3ccc(O)c(O)c3O)C(O)C2O)c(=O)[nH]1` (stereo unspecified), the GI50 in the experiment on HS 578T breast was 22.8 µM; in the experiment on K-562 leukemia, 21.7 µM; in the experiment on M14 melanoma, 39 µM; in the experiment on NCI/ADR-RES ovarian, 20.5 µM; with ACHN renal, 31.8 µM; in the experiment with SK-MEL-2 melanoma, 57.4 µM. The GI50 in the experiment with MDA-MB-435 is 15.8 µM; in the experiment with HCT-116 colon it was 20.6 µM; in the experiment with UACC-62 melanoma, 76.4 µM; in the experiment on T-47D breast it was 21.8 µM. Moreover, the TGI in the experiment on HS 578T breast was 59.7 µM; in the experiment with K-562 leukemia, 78.5 µM; in the experiment with M14 melanoma, more than 100 µM; in the experiment on NCI/ADR-RES ovarian it was 49 µM; with ACHN renal it was more than 100 µM; with SK-MEL-2 melanoma it was more than 100 µM. The TGI is 31.3 µM in the experiment on MDA-MB-435, 58.7 µM with HCT-116 colon, more than 100 µM in the experiment on UACC-62 melanoma and 50.3 µM in the experiment with T-47D breast.

These data come from PubChem BioAssay (NCI).
